Assay results taken from patent publication US20230391817A1, “5ALPHA-HYDROXY-6BETA-[2-(1-H-IMIDAZOL-4-YL)-ETHYLAMINO]-CHOLESTAN-3BETA-OL ANALOGUES AND PHARMACEUTICAL COMPOSITIONS COMPRISING SAME FOR USE IN THE TREATMENT OF CANCER” (priority 2020, published 2023).

Legend:
[1] = Oral pharmacokinetic study in rat, LC/MS assay in plasma (Examples 21-24); type: in vivo; settings: 50 mg/kg
Method: The following study is an LC/MS assay in plasma of the various molecules over 3 days (11 measurement points in the end). The graphs are always presented in comparison with DX101 which is the reference.
Plasma sampling at 0 (without injection), 5, 10, 15, 30 min, 1 h, 4 h, 8 h, 24 h, 48 h, 72 h (11 points)

[2] = system: murine 4T1 mammary tumor cells; assay: Cell viability of 4T1 cells, LDH; type: cell-based; settings: Mus musculus, 4T1, LDH, 48 h
Method: (§1) Cell viability tests were performed on murine 4T1 mammary tumor cells characterized as triple negative (HER2-, ER-, PR-).
(§2) For this experiment, a cell culture medium was prepared. The culture medium consisted of Dulbecco's Modified Eagle Medium (DMEM, sold by Westburg as LO BE12-604F), comprising 4.5 g/L glucose with L-glutamine, to which 10% fetal calf serum (FCS) and 50 U/ml penicillin/streptomycin are added. The 4T1 cells were introduced into this culture medium.
(§3) 96-well plates were seeded with 2000 4T1 cells per well. After 72 hours (h) of culture under normal condition, i.e. in an incubator at 37° C. at […], the 4T1 cells were treated for 48 h with DX101, DX103, DX111, DX123, DX125, DX127 and DX129 at 100 nM, 1 μM, 2.5 μM and 10 μM. A control condition (CTL) is also performed in parallel using the previously described protocol without treatment with the molecules DX101, DX103, DX111, DX123, DX125, DX127 or DX129.
For the second method, the percentage of viability is determined by assaying the activity of the enzyme LDH (lactate dehydrogenase) in cell supernatants using the non radioactive cytotoxicity assay kit (Promega). LDH is an enzyme released in the supernatant of dead cells. The higher the LDH activity in the supernatant, the greater the cell death. In this enzyme assay, the LDH released converts a violet tetrazolium salt to a red colored formazan, absorbing at 490 nm. The intensity of the red color is proportional to the number of dead cells. After 48 h of treatment, the supernatants are transferred to a new 96-well plate and incubated for 30 minutes in the presence of substrate mix at room temperature. The reaction is stopped with stop solution reagent and the absorbance is determined at 490 nm. The percentage of cell death is determined here using a 100% maximum LDH activity control (made from untreated cells incubated in the presence of lysis solution for 45 minutes at 37° C. just prior to addition of the substrate mix), and the cell viability in each well is then deduced from this percentage. The IC50 is then determined as explained in the preceding paragraph.

[3] = system: murine 4T1 mammary tumor cells; assay: Cell viability of 4T1 cells, CellTox Green Cytotoxicity Assay; type: cell-based; settings: Mus musculus, 4T1, Green Cytotoxicity Assay, 48 h
Method: as §1, §2, §3
For the third method, the percentage viability is determined using the CellTox Green Cytotoxicity Assay kit (Promega). This assay measures cell death via a change in membrane integrity. […] Consequently, the higher the fluorescence in the wells, the greater the cell death. […] The percentage of cell death is determined using the 100% cell death control (made from untreated cells incubated in the presence of the lysis solution for 30 minutes at 37° C. prior to the addition of Celltox green reagent), and the cell viability in each well is then deduced from this percentage. The IC50 is then determined as explained previously.

[4] = system: BT-474 human mammary tumor cells; assay: Cell viability of BT-474 cells, trypan blue; type: cell-based; settings: BT-474, Trypan Blue, 48 h; for Mean LogIC50 (±SEM): log of IC50 in μM; for IC50: Homo sapiens
Method: Cell viability tests were also performed on BT-474 human mammary tumor cells (characterized as triple positive HER2+, ER+, PR+). The BT-474 cells were in a cell culture medium identical to the previous example and seeded in 24-well plates at 70 000 cells per well for cell viability determination using trypan blue, or in 96-well plates at 13 000 cells per well for cell viability determination using the MTT or LDH assay. After 96 hours (h) of culture under normal conditions, i.e. in an incubator at 37° C. with […], BT-474 cells were treated for 48 h with DX101, DX103, DX105, DX111, DX123 and DX127 at 100 nM, 1 μM, 2.5 μM and 10 μM. A control is also performed using the protocol described previously without treatment with DX101, DX103, DX105, DX111, DX123 and DX127.
After a 10-minute trypsin digestion at 37° C., the cell survival was also quantified by means of a trypan blue test with automatic counting using the Biorad TC20 machine (TC20™ Automated Cell Counter). The trypan blue test is based on the integrity of cell membranes, which is disrupted in the dead cells. Trypan blue stains dead cells blue. The Biorad TC20 cell counter counts the proportion of blue and non-blue cells, and reports the percentage of cells. The percentage of viability is then determined in each well relative to the untreated cells and the IC50 is determined as explained in the preceding example. Also, the percentage viability of the BT-474 cells was determined using the MTT and LDH assay, performed as described in the preceding example.

[5] = log of IC50 in μM, read-out: Mean LogIC50 (±SEM) (converted)

Compound	Area under the curve ([1]; oral, plasma, Example 24)	Max concentration ([1]; oral, plasma, Example 24) [nM]	Area under the curve ([1]; oral, plasma, Examples 21-23)	Max concentration ([1]; oral, plasma, Examples 21-23) [nM]	IC50 [2, 5] [µM]	IC50 ([2]; read-out: IC50) [µM]	IC50 [3, 5] [µM]	IC50 ([3]; read-out: IC50) [µM]	Mean LogIC50 (±SEM) [4]	IC50 [4] [nM]	Area under the curve ([1]; in vivo, po)	Max concentration ([1]; in vivo, po) [nM]	Time for Cmax ([1]; in vivo, po) [min]	bioavailability / extent of absorption compared with DX101 ([1]; in vivo, po)	maximum concentration compared with DX101 ([1]; in vivo, po)	speed of absorption compared with DX101 ([1]; in vivo, po)
CC(C)CCC[C@@H](C)[C@H]1CC[C@H]2[C@@H]3C[C@@H](NCCc4c[nH]cn4)[C@@]4(O)C[C@@H](O)CC[C@]4(C)[C@H]3CC[C@]12C [DX101, 5α-hydroxy-6β-[2-(1H-imidazol-4-yl)ethylamino]cholestan-3β-ol, reference compound]	3019	150	143297	140	3.24	3.24	2.69	2.68	0.61 ± 0.20	4030	–	–	–	–	–	–
CC(C)CCC[C@@H](C)[C@H]1CC[C@H]2[C@@H]3C[C@@H](NCCc4c[nH]cn4)[C@@]4(O)C[C@@H](F)CC[C@]4(C)[C@H]3CC[C@]12C [DX111, 3β-fluoro-5α-hydroxy-6β-[2-(1H-imidazol-4-yl)ethylamino]cholestane]	–	–	–	–	1.86	1.88	2.19	2.18	0.78 ± 0.15	5960	368921	515	240	three-fold higher absorption	higher maximum concentration	faster absorption
